Where a name gives a salt, the structure may show the parent alone.
target: catalytic domain of human PARP14 (Homo sapiens (Human), UniProt Q460N5); assay: Enzymatic assay for inhibition of PARP14 (DELFIA, auto-modification with biotin-NAD); format: biochemical; conditions: auto-modification of PARP14 by biotin-NAD, 50 nM PARP14, 3 μM biotin-NAD
Method in brief: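 DELFIA auto-modification read-out: europium-streptavidin bound to biotin-NAD incorporated onto nickel-captured His-TEV PARP14 catalytic domain. Compound preincubated 30 min, then 50 nM enzyme with 3 μM biotin-NAD reacted 3 h, all at 25 °C, pH 8, then NAD quench. Percent inhibition normalized to rucaparib/DMSO wells, fitted (4- or 3-parameter) for IC50.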

Chain of catalytic domain of human PARP14 (Q460N5 1611-1801): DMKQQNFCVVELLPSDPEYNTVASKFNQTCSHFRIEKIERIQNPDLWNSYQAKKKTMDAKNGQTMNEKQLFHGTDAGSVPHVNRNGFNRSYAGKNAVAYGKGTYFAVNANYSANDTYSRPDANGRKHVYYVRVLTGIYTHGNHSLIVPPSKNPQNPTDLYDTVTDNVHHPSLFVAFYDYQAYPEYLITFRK

SMILES	IC50
O=c1[nH]c(CSC2CCNCC2)nc2cc(NCCN3CCOCC3)cc(F)c12 [Example 277, 5-Fluoro-7-((2-morpholinoethyl)amino)-2-((piperidin-4-ylthio)methyl)quinazolin-4(3H)-one dihydrochloride]	< 1000 nM
O=c1[nH]c(CSC2CCOCC2)nc2cc(Nc3ccncc3)ccc12 [Example 86, 7-(Pyridin-4-ylamino)-2-(((tetrahydro-2H-pyran-4-yl)thio)methyl)quinazolin-4(3H)-one]	1000 to 10000 nM
O=c1[nH]c(CS[C@H]2CC[C@H](O)CC2)nc2cc(NC3CCCC3)c(F)c(F)c12 [Example 313, 7-(Cyclopentylamino)-5,6-difluoro-2-(((trans-4-hydroxycyclohexyl)thio)methyl)quinazolin-4(3H)-one]	< 1000 nM
CC(=O)Nc1ccc2c(=O)[nH]c(CSC3CCOCC3)nc2c1 [Example 75, N-(4-Oxo-2-(((tetrahydro-2H-pyran-4-yl)thio)methyl)-3,4-dihydroquinazolin-7-yl)acetamide]	> 10000 nM
CC(=O)N[C@H]1CC[C@H](SCc2nc3cc(OCC4CCOC4)cc(F)c3c(=O)[nH]2)CC1 (some centres unmarked) [Example 391]	< 1000 nM
Cc1cccc2c(=O)[nH]c(CSC3CCN(CCN)CC3)nc12 [Example 163, 2-(((1-(2-Aminoethyl)piperidin-4-yl)thio)methyl)-8-methylquinazolin-4(3H)-one dihydrochloride]	1000 to 10000 nM
CN1CCC(COc2cc(F)c3c(=O)[nH]c(CSC4CCOCC4)nc3c2)CC1 [Example 415]	< 1000 nM
Cc1c(Nc2ccccc2)ccc2c(=O)[nH]c(CSC3CCOCC3)nc12 [Example 95, 8-Methyl-7-(phenylamino)-2-(((tetrahydro-2H-pyran-4-yl)thio)methyl) quinazolin-4(3H)-one]	1000 to 10000 nM
CNc1cc2nc(CSC3CCOCC3)[nH]c(=O)c2c(F)c1F [Example 420]	< 1000 nM
CC(Nc1ccc2c(=O)[nH]c(CSC3CCOCC3)nc2c1)c1ccccc1 (centres unmarked) [Example 120, 7-((1-Phenylethyl)amino)-2-(((tetrahydro-2H-pyran-4-yl)thio)methyl)quinazolin-4(3H)-one]	> 10000 nM
O=c1[nH]c(CSC2CCOCC2)nc2cc(OCC3CCCOC3)cc(F)c12 (centres unmarked) [Example 319, 5-Fluoro-7-((tetrahydro-2H-pyran-3-yl)methoxy)-2-(((tetrahydro-2H-pyran-4-yl)thio)methyl)quinazolin-4(3H)-one]	< 1000 nM
O=c1[nH]c(CS[C@H]2CC[C@@H](OC(F)(F)F)CC2)nc2cc(OCC3CCOCC3)cc(F)c12 [Example 418]	< 1000 nM
Cc1cc(OCC2CCC2)cc2nc(CSC3CCOCC3)[nH]c(=O)c12 [Example 237, 7-(Cyclobutylmethoxy)-5-methyl-2-(((tetrahydro-2H-pyran-4-yl)thio)methyl)quinazolin-4(3H)-one]	< 1000 nM
O=c1[nH]c(CSC2CCOCC2)nc2cc(NCc3ccncc3)ccc12 [Example 117, 7-((Pyridin-4-ylmethyl)amino)-2-(((tetrahydro-2H-pyran-4-yl)thio)methyl)quinazolin-4(3H)-one]	1000 to 10000 nM
O=c1[nH]c(CS[C@@H]2CCNC[C@H]2F)nc2cc(OCC3CC3)cc(F)c12 (relative stereo) [Example 297, 7-(Cyclopropylmethoxy)-5-fluoro-2-(((trans-3-fluoropiperidin-4-yl)thio)methyl)quinazolin-4(3H)-one hydrochloride]	1000 to 10000 nM
O=c1[nH]c(CSC2CCOCC2)nc2cc(OC[C@@H]3CCCO3)cc(F)c12 [Example 321b, (S)-5-Fluoro-2-(((tetrahydro-2H-pyran-4-yl)thio)methyl)-7-((tetrahydrofuran-2-yl)methoxy)quinazolin-4(3H)-one]	< 1000 nM
CN1CC[C@@H](COc2cc(F)c3c(=O)[nH]c(CSC4CCOCC4)nc3c2)[C@@H](F)C1 (relative stereo) [Example 388]	< 1000 nM
NC[C@H]1CC[C@@H](SCc2nc3cc(NC4CCCC4)cc(F)c3c(=O)[nH]2)CO1 (relative stereo) [Example 242, 2-((((cis)-6-(Aminomethyl)tetrahydro-2H-pyran-3-yl)thio)methyl)-7-(cyclopentylamino)-5-fluoroquinazolin-4(3H)-one bis Hydrochloride]	1000 to 10000 nM
Cc1cccc2c(=O)[nH]c(CSC3CCOCC3)nc12 [Example 2]	< 1000 nM
O=c1[nH]c(CSC2CCOCC2)nc2cc(Nc3nccs3)ccc12 [Example 89, 2-(((Tetrahydro-2H-pyran-4-yl)thio)methyl)-7-(thiazol-2-ylamino)quinazolin-4(3H)-one]	1000 to 10000 nM
CO[C@H]1C[C@@H](Nc2cc3nc(CS[C@H]4CC[C@H](O)CC4)[nH]c(=O)c3c(F)c2F)C1 [Example 363]	< 1000 nM
O=c1[nH]c(CSC2CCOCC2)nc2cc(NC3CCCC3)cc(Cl)c12 [Example 253, 5-Chloro-7-(cyclopentylamino)-2-(((tetrahydro-2H-pyran-4-yl)thio)methyl)quinazolin-4(3H)-one]	< 1000 nM
O=c1[nH]c(CSC2CCN(C3COC3)CC2)nc2cc(NCC3CC3)cc(F)c12 [Example 274, 7-((Cyclopropylmethyl)amino)-5-fluoro-2-(((1-(oxetan-3-yl)piperidin-4-yl)thio)methyl)quinazolin-4(3H)-one]	< 1000 nM
Cc1ccc(C(F)(F)F)c2c(=O)[nH]c(CSC3CCOCC3)nc12 [Example 35, 8-Methyl-2-(((tetrahydro-2H-pyran-4-yl)thio)methyl)-5-(trifluoromethyl)quinazolin-4(3H)-one]	< 1000 nM
O=c1[nH]c(CSC2CCNCC2)nc2cc(NCC3CCC3)c(F)cc12 [Example 289, 7-((Cyclobutylmethyl)amino)-6-fluoro-2-((piperidin-4-ylthio)methyl)quinazolin-4(3H)-one hydrochloride]	1000 to 10000 nM
O=c1[nH]c(CSC2CCOCC2)nc2cc(NC3CCN(Cc4ccccc4)CC3)ccc12 [Example 128, 7-((1-Benzylpiperidin-4-yl)amino)-2-(((tetrahydro-2H-pyran-4-yl)thio)methyl) quinazolin-4(3H)-one]	1000 to 10000 nM
Cc1cccc2c(=O)[nH]c(CS[C@H]3CCC[C@H](N)CC3)nc12 (relative stereo) [Example 54, 2-(((trans-4-Aminocycloheptyl)thio)methyl)-8-methylquinazolin-4(3H)-one Trifluoroacetate]	1000 to 10000 nM
Cc1cccc2c(=O)[nH]c(CS[C@H]3CC[C@H](CN)CC3)nc12 [Example 66, 2-(((trans-4-(Aminomethyl)cyclohexyl)thio)methyl)-8-methylquinazolin-4(3H)-one Trifluoroacetate]	< 1000 nM
O=c1[nH]c(CS[C@H]2CC[C@H](OC(F)(F)F)CC2)nc2cc(OCC3CCOCC3)cc(F)c12 [Example 375]	< 1000 nM

The next lines start with the values.

IC50	SMILES
1000 to 10000 nM	Cc1cccc2c(=O)[nH]c(CSC3CCN(Cc4ccc5c(c4)OCCN5C)CC3)nc12 [Example 158, 8-Methyl-2-(((1-((4-methyl-3,4-dihydro-2H-benzo[b][1,4]oxazin-7-yl)methyl)piperidin-4-yl)thio)methyl)quinazolin-4(3H)-one trifluoroacetate]
1000 to 10000 nM	CC(=O)N1CCC(SCc2nc3c(C)cccc3c(=O)[nH]2)CC1 [Example 17, 2-(((1-Acetylpiperidin-4-yl)thio)methyl)-8-methylquinazolin-4(3H)-one]
< 1000 nM	COC(=O)N1CCC(SCc2nc3cc(NC4CCCC4)ccc3c(=O)[nH]2)CC1 [Example 208, Methyl 4-(((7-(cyclopentylamino)-4-oxo-3,4-dihydroquinazolin-2-yl)methyl)thio)piperidine-1-carboxylate]
1000 to 10000 nM	O=c1[nH]c(CS[C@H]2CC[C@H](O)CC2)nc2cc(F)ccc12 [Example 46, 7-Fluoro-2-((((trans)-4-hydroxycyclohexyl)thio)methyl)quinazolin-4(3H)-one]
< 1000 nM	O=c1[nH]c(CS[C@H]2CC[C@H](O)CC2)nc2cc(NC3CCC3)ccc12 [Example 194, 7-(cyclobutylamino)-2-((((1R,4R)-4-hydroxycyclohexyl)thio)methyl)quinazolin-4(3H)-one]
1000 to 10000 nM	Cc1ccc2nc(CSC3CCOCC3)[nH]c(=O)c2c1 [Example 3]
< 1000 nM	O=c1[nH]c(CS[C@H]2CC[C@@H](O)CC2)nc2cc(OCC3CCOCC3)cc(F)c12 [Example 365]
1000 to 10000 nM	O=c1[nH]c(CSC2CCOCC2)nc2cc(NC3CCNCC3)ccc12 [Example 129, 7-(Piperidin-4-ylamino)-2-(((tetrahydro-2H-pyran-4-yl)thio)methyl) quinazolin-4(3H)-one]
1000 to 10000 nM	O=c1[nH]c(CSC2CCOCC2)nc2cc(CCC3CCCCC3)cc(F)c12 [Example 368]
< 1000 nM	O=c1[nH]c(CS[C@H]2CC[C@H](O)CC2)nc2cc(N[C@@H]3CCC[C@@H]3F)cc(F)c12 (relative stereo) [Example 341]
1000 to 10000 nM	O=c1[nH]c(CSC2CCOCC2)nc2cc(Oc3ccccc3)ccc12 [Example 29, 7-Phenoxy-2-(((tetrahydro-2H-pyran-4-yl)thio)methyl)quinazolin-4(3H)-one]
< 1000 nM	Cc1cccc2c(=O)[nH]c(CSC3CCN(CCO)CC3)nc12 [Example 162, 2-(((1-(2-Hydroxyethyl)piperidin-4-yl)thio)methyl)-8-methylquinazolin-4(3H)-one]
1000 to 10000 nM	Cc1cccc2c(=O)[nH]c(CS[C@@H]3CC[C@@H](CCN)C3)nc12 (relative stereo) [Example 183, 2-((((trans)-3-(2-aminoethyl)cyclopentyl)thio)methyl)-8-methylquinazolin-4(3H)-one]
1000 to 10000 nM	COc1cccc(Nc2ccc3c(=O)[nH]c(CSC4CCOCC4)nc3c2)c1 [Example 83, 7-((3-Methoxyphenyl)amino)-2-(((tetrahydro-2H-pyran-4-yl)thio)methyl)quinazolin-4(3H)-one]
1000 to 10000 nM	O=c1[nH]c(CSC2CCOCC2)nc2cc(NC3CCNC3)ccc12 (centres unmarked) [Example 130, 7-(Pyrrolidin-3-ylamino)-2-(((tetrahydro-2H-pyran-4-yl)thio)methyl) quinazolin-4(3H)-one]

— US10562891B2, “Quinazolinones as PARP14 inhibitors” (Ribon Therapeutics Inc., priority 2017, dated 2020)
